# Measured values from a melting point compilation (Tetko et al.; mined from patent text by program, amines drawn as free bases though some values may be those of a salt).
row,melting point,SMILES
1,114 to 117 °C,N#Cc1cccc2nnsc12
2,107 to 111 °C,CC1(C)SCN(CCCCN2CCN(c3ccc4ccccc4n3)CC2)C1=O
3,177 to 189 °C,Nc1ccc2c(c1)COC2=O
4,196 to 197 °C,O=c1ccn(CCO)c(C(O)c2ccccc2OCc2ccccc2)c1OCc1ccccc1 (stereo not given)
5,145 to 147 °C,COC1(c2cccc(Oc3nc(-c4ccccc4)c(-c4ccc(S(N)(=O)=O)cc4)o3)c2)CCOCC1
6,138 to 139 °C,COc1cccc(Cn2cnc3c(-c4ccco4)ncnc32)c1
7,236 to 238 °C,OC(c1cc2ccccc2c2ccccc12)c1cc2ccccc2c2ccccc12
8,156 °C,CC1=NNC(C)=C(C(=O)NN)C1c1ccccc1 (stereo not given)
9,154 to 156 °C,COc1ccc(Cc2nc3n(c2Cc2ccc(OC)cc2)CCS3)cc1
10,136 to 137 °C,O=C(c1ccco1)N1N=CCC1c1ccccc1 (stereo not given)
11,85 to 88 °C,CC(O)C1=C(c2ccccc2)C(=O)N(C(C)(C)C(=O)Nc2cc(Cl)cc(Cl)c2)CO1 (stereo not given)
12,211 to 213 °C,CC(C)(C)OC(=O)c1nc(-c2ccccc2)[nH]c1-c1ccccn1
13,89 to 90 °C,N#CC1c2ccccc2CCc2ccccc21
14,200 to 202 °C,CC(C(=O)O)c1cccc2c(-c3ccc(Cl)cc3)nccc12 (stereo not given)
15,290 to 297 °C,COc1cc2[nH]c(=O)c3c(c2cc1OC)CCN(C(=O)c1ccccc1)C3
16,183 to 184 °C,O=c1[nH]c(=O)n(CCCCl)c2ccccc12

row,melting point,SMILES
1,131 to 133 °C,CCCCS(=O)(=O)Nc1ccccc1Oc1ccc2ncccc2c1
2,134 to 136 °C,Cc1c(Cl)nn(C(C)(C)C(=O)N(C)C)c1-c1ccccc1
3,81.6 to 84.4 °C,CSc1ccc(Oc2ccc([N+](=O)[O-])cc2)c(C)c1
4,215 to 217 °C,CC(C)(C)N(Cc1ccccc1)CC(O)COc1cccc2c1CNC(=O)N2 (stereo not given)
5,> 250 °C,NCC1Cc2cc(C(F)(F)F)cc(-c3ccc(C(F)(F)F)cc3)c2O1 (stereo not given)
6,62 to 64 °C,COC(=O)c1ccc(CCc2ccncc2)cc1
7,205 to 208 °C,COc1ccc(OCC(O)CN2CCN(c3ccccc3C(=O)O)CC2C)c(C(C)(C)C)c1 (stereo not given)
8,164 °C,O=c1ccc(-c2nc3ccccc3s2)cn1Cc1ccc(Cl)c(F)c1
9,112 to 114 °C,CCOC(=O)C1=CC(=O)C(C(=O)OCC)=C(S(=O)(=O)c2ccccc2)C1=O
10,143 to 145 °C,Fc1cccc(Cl)c1COc1cccnc1NC(=S)Nc1ccccc1
11,118 to 119 °C,COc1ccc2cc(C#CC(C)(C)O)ccc2c1
12,141 to 142 °C,COc1cc(CC(COC(C)=O)NC(=O)c2ccccc2)cc2c1OC(C)(C)C2 (stereo not given)
13,229 to 231 °C,O=C1c2ccccc2N(N2CCCCC2)C2=NCCN12
14,159 °C,CCCCc1nc2c(N)nc3cccnc3c2n1CCOc1ccccc1
15,177 to 178 °C,COc1ccc(C(=O)c2c(N)sc3c2CCCN3C(=O)OCc2ccccc2)cc1OC
16,162 to 165 °C,CC(C(N)=O)c1ccc2c(c1)CCc1cccnc1O2 (stereo not given)

# Second part, the compound before the results:
row,SMILES,melting point
1,Cc1ccc(C(=O)Nc2ccc(N3CCN(Cc4cccc(C#N)c4)CC3)cc2)c(-c2ccc(C(C)C)cc2)c1,167 to 169 °C
2,COC(=O)C1(C)CN(C(=O)Nc2c(C)noc2C)N=C1c1ccc(Cl)cc1 (stereo not given),214 to 216 °C
3,CCc1c(C(=O)OC(C)C)ncc2[nH]c3ccc4nc(C)cnc4c3c12,236 to 238 °C
4,CC(C)Sc1cc2c3cc(SC(C)C)c(SC(C)C)cc3c3cc(SC(C)C)c(SC(C)C)cc3c2cc1SC(C)C,165 to 168 °C
5,CCN(CC)c1ccc(C2(c3c(C)n(CC)c4ccccc34)OC(=O)c3ccccc32)c(OCc2ccccc2)c1 (stereo not given),138 °C
6,CC1COC(Cn2nc[nH]c2=S)(c2ccc(Oc3ccc(Cl)cc3)cc2Cl)O1 (stereo not given),130 °C
7,Cc1coc(-c2cccnc2)n1,40 °C
8,CCC(=O)OCC(OC(=O)CC)c1nc2c(C(F)(F)F)cccc2c(O)c1C(=O)Nc1nccs1 (stereo not given),206 °C
9,O=C(NCCc1cccs1)C12CC3CC(CC(O)(C3)C1)C2,118 to 119 °C
10,CCc1cc([N+](=O)[O-])c(NC(CC)CC)c([N+](=O)[O-])c1C,51 to 53 °C
11,Cc1oc(-c2ccco2)nc1COc1ccc(COc2nn(Cc3ccc(OCc4nc(-c5ccco5)oc4C)cc3)cc2C=O)cc1,109 to 110 °C
12,COc1ccc([N+](=O)[O-])c(OC2CCOC2=O)c1 (stereo not given),109 to 110 °C
13,Cc1cc(C2C3=C(CCS3)NC3=C2C(=O)CCC3)ccc1F (stereo not given),> 260 °C
14,CCCCC1(N(C)C)CCC(c2[nH]c3ccccc3c2CC2CCCCC2)CC1 (stereo not given),155 to 165 °C
15,COc1ccc(-c2ccc(C(=O)O)cc2)cc1-c1ccc2c(c1)C(C)(C)CCC2(C)C,251 to 255 °C
16,COc1nc2c(Cl)c(Cl)c(Cl)c(Cl)c2n1COC(CO)CO,192 °C
17,CCCCCCCCc1ncc([N+](=O)[O-])n1C,141 °C
18,NC(=O)/C=C/c1cc([N+](=O)[O-])ccc1Cl,208 to 210 °C
19,Oc1cc(CCl)ncn1,164 to 166 °C
20,O=C(O)c1c(SCCO)c(SCCO)c(SCCO)c(SCCO)c1C(O)=NCCO,152 to 157 °C
21,Cc1c(CO)c2c(c(C)c1NC(=O)CC(C)(C)C)C(c1ccc(C(C)C)cc1)CO2 (stereo not given),274 to 275 °C
22,CN1CCN(c2ccc(C(=O)NC3CCCNC(=O)C3)cc2)CC1 (stereo not given),232 to 234 °C
23,Cc1cnc2c([N+](=O)[O-])cccc2c1Cl,126 °C

row,SMILES,melting point
1,CCOC(=O)c1cc2cccc([N+](=O)[O-])c2n1COC,62 to 63 °C
2,CS(=O)(=O)c1ccc(-c2cnn(-c3cc(F)cc(F)c3)c(=O)c2Oc2ccc(F)cc2)cc1,209 to 211 °C
3,C=CCN1C2CCC1C1CCC2N1C(c1ccc(C(=O)N2CCCC2)cc1)c1cccc(O)c1 (stereo not given),156 to 158 °C
4,COc1ccc2cc3c(c(-c4ccc5c(c4)OCO5)c2c1OC)C(=O)NC3=O,274 to 276 °C
5,COc1ccc(CCN(C)CCCN(C(C)C)S(=O)(=O)c2ccc(Cl)c(Cl)c2)cc1OC,62 to 64 °C
6,CCCn1c(=S)[nH]c2ccsc2c1=O,> 230 °C
7,CN(C)c1ccc(C2=CCC(C)(C)c3cc(C(O)C#Cc4ccc(C(=O)O)cc4)ccc32)cc1 (stereo not given),91 °C
8,CCOC(=O)C(=Cc1ccccn1)C(=O)C(C)C,53 to 55 °C
9,CN(Cc1ccncc1)c1ccc([N+](=O)[O-])c2c(C#N)cccc12,153 to 156 °C
10,C=CCOc1cc(-n2c(OC)nc(C(F)(F)F)cc2=O)c(F)cc1Br,107 to 110 °C
11,COC(=O)CCCCCCCCCCCNC(=O)NC12CC3CC(CC(C3)C1)C2,75 °C
12,COc1cc(NC(SC)=C(C#N)S(=O)(=O)c2ccc(Cl)cc2)cc(OC)c1,120 to 123 °C
13,COC(=O)NNC(=O)CCC1CCCCC1,113 °C
14,CC#CCOc1ccc(SC(C(=O)NO)c2ccc(Cl)cc2)cc1 (stereo not given),152 °C
15,CCC(C)(C)c1ccc(OCC(=O)O)c(C(C)(C)C)c1,140 to 144 °C
16,COCCOc1ccc(/C=C/C(=O)NS(=O)(=O)c2cccnc2)c(Oc2ncc(C(F)(F)F)cc2Cl)c1,165 to 167 °C
17,Cc1ccc(-c2ccc(C(=O)Nc3cc4ncc(CN5CCCC5)cc4cc3F)cc2)cc1,202 to 204 °C
18,Cc1cc(-c2nnn(C)n2)cc(C)c1OCCCn1cncn1,76 to 78 °C
19,COc1cc2c3c(c1)[nH]c(=S)n3CCC2,188 to 192 °C
20,Cc1oc(-c2ccco2)nc1/C=C/c1ccc(C=CC=C2OC(=O)NC2=O)cc1,290 to 291 °C
21,COc1cc2c(cc1OC(C)C)C(=O)C1c3c(cc(OC(C)C)c(OC)c3-2)CCN1C (stereo not given),82 to 84 °C
22,CCCOc1ccccc1-c1nc2nnc(N)nc2c(=O)[nH]1,322 to 325 °C
23,CCCCCNC(=O)[C@@H]1CCCN1C(=O)[C@H](C)NC(=O)OCc1ccccc1,102 to 104 °C

row,SMILES,melting point
1,NC(=O)c1cc(F)c(NC2CCNCC2)cc1F,188 to 190 °C
2,CCCCCCCCNC(=O)NCCCCC,65 to 65.5 °C
3,Nc1cc(C(=O)N2CCC2)cc(C(F)(F)F)c1,154 °C
4,Cc1nnc2n1-c1ccc(Cl)cc1C(N1CCCCC1)=NC2,238 to 243 °C
5,CN1CCN(C2=NC(=O)C(=Cc3cccc(-c4cc(F)c(O)c(C56CC7CC(CC(C7)C5)C6)c4)c3)S2)CC1,226 to 228 °C
6,Cn1c(N)c2ncn(C3OC(CO)C(O)C3O)c2nc1=O (stereo not given),262 to 263 °C
7,CC(=O)OCCc1ccccc1S(N)(=O)=O,116 to 118 °C
8,COc1ccc(C)nc1Cn1c(NCCCN2CCOCC2)nc2ccc(CNc3cc(C)ccc3CCCO)cc21,132 °C
9,CCCN(CCC)C(=O)COc1cc(C)nc(-c2ccccc2)n1,68 to 69 °C
10,O=[N+]([O-])c1cc(F)c(Cl)cc1Cl,39 to 42 °C
11,Cn1cnnc1C(c1ccc(Cl)cc1)c1ccc2c(c1)c(-c1cccc(Cl)c1)nc1nnnn12 (stereo not given),217 °C
12,CCOC(=O)C1CC(=O)C(NC(C)=O)=C(O)C1 (stereo not given),112 to 114 °C
13,CCN1c2ccccc2NC(=S)c2cccnc21,194 to 196 °C
14,Cc1cccc(N(c2cccc(C)c2)c2c(N(c3cccc(C)c3)c3cccc(C)c3)c3ccccc3c3ccccc23)c1,223 to 224 °C
15,CC(=O)Nc1nc(N)nnc1-c1cccc(Cl)c1Cl,250 to 252 °C
16,CC(=O)NN=C(C(=O)NN)c1ccccc1,177 °C
17,CC(C)NC(=O)Nc1ccc(Oc2ccc3sncc3c2)c(C(F)(F)F)c1,158 °C
18,CC12CC(=O)C3C(CCC4CC(O)CCC43C)C1CCC2C(=O)CSc1ccccn1 (stereo not given),184 °C
19,CCc1ccc2c(CC(=O)O)c(C(=O)c3cc(C)ccn3)[nH]c2c1,204 to 207 °C
20,N#Cc1cnc2sc(CCC(=O)O)cc2c1Nc1ccc2[nH]ccc2c1,255 °C
21,Cc1cc(Nc2ccc(NC(=O)c3ccc(Nc4ccnc5ccc(Cl)cc45)cc3)cc2)nc(N)n1,250 to 254 °C
22,CCC(=O)N(C)c1cccc(-c2ccc3nnc(C)n3n2)c1,150 to 152 °C
